Experimental data taken from patent US20190388421A1, “NOVEL COMPOUNDS AND PHARMACEUTICAL COMPOSITIONS THEREOF FOR THE TREATMENT OF FIBROSIS” (Galapagos NV, priority 2016, published 2019).

How the values were obtained:
[1] = biological target: T1, human GPCR sphingosine 1-phosphate receptor 2 (S1PR2) (Homo sapiens, UniProt O95136); experiment: S1P2 antagonist assay (Ca2+ flux, S1P at EC80); format: cell-based; settings: CHO-S1PR2 cells, highest concentration 20 μM
T1 construct: host or cells: CHO
In short: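 CHO cells stably overexpressing human S1PR2, serum-starved 1 h and loaded with Fluo8 dye, were read for 3 min after compound addition, then stimulated with S1P at EC80 after 15 min at 37 °C. Top concentration 20 μM in a 10-point 1/3 series; Ca2+ fluorescence ratio normalized to vehicle and S1P EC80, giving EC50.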

[2] = biological target: T2, human GPCR sphingosine 1-phosphate receptor 1 (S1PR1) (Homo sapiens, UniProt P21453); experiment: S1PR1 selectivity assay (Ca2+ flux, antagonist); format: cell-based; settings: S1P1 antagonist EC50, CHO cells overexpressing human S1PR1 and Gq protein
T2 construct: host or cells: CHO
In short: (§1)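 CHO cells stably overexpressing human S1PR1 or S1PR5 with Gq were preincubated with compound 15 min at 37 °C, then stimulated with S1P at EC80 (S1PR1) or an S1PR5-specific agonist (S1PR5). Ca2+ fluorescence was read for 3 min; 10-point 1/3 dilutions from 20 μM final, normalized to vehicle and EC80 trigger, gave EC50.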

[3] = biological target: T3, human GPCR sphingosine 1-phosphate receptor 5 (S1PR5) (Homo sapiens, UniProt Q9H228); experiment: S1PR5 selectivity assay (Ca2+ flux, antagonist, S1PR5 specific agonist trigger); format: cell-based; settings: S1P5 antagonist EC50, CHO cells overexpressing human S1PR5 and Gq protein
T3 construct: host or cells: CHO
In short: as §1

S1PR2 = biological target: T4, S1PR2 (Homo sapiens, UniProt O95136); experiment: GTP-γS binding assay ([35S]GTPγS, S1P at EC80, S1PR2 membranes); format: biochemical; settings: membranes from stable cell line over expressing S1PR2, read-out: S1PR2 EC
T4 construct: expressed in transfected cells
In short: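 Compounds tested against S1P at its EC80 on membranes (2.5 μg/well) from a stable S1PR2-overexpressing line, pre-incubated with 1 μM GDP 15 min at 4 °C. Buffer: 20 mM Tris pH 7.5, 10 mM MgCl2, 100 mM NaCl, 0.1% fatty-acid-free BSA, 50 ug/ml saponin. Incubated 4 h at room temperature; [35S]GTPγS binding read by WGA SPA beads.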

HFL-1 cells [4] = experiment: IL8 assay (S1P induced IL-8 production); format: cell-based; settings: Homo sapiens, HFL1; S1P (1 μM) induced IL-8, HFL-1 cells, without HSA
Method: (§2) S1P is able to induce cytokines such as IL-8 in a process that is S1PR2 dependent (O'Sullivan et al, 2014; Bruennert et al, 2015). This assay is designed to test inhibitory activity of compounds on S1P induced IL-8 on HFL-1 cells, a human fetal lung fibroblast cell line.
Human Fetal Lung cells (HFL-1) are seeded in 96 well plates in growth medium (F12K+10% heat inactivated FBS+1% Pen/strep). After overnight incubation at 37° C., 5% CO2 cells are refreshed with starvation medium without HSA (F12K+1% FBS+1% Pen/strep). On day three, compounds are added (10 point serial dilution, 30 μM highest concentration, ⅓ dilution, 0.3% DMSO final) and plates are incubated for one hour at 37° C., 5% CO2. Subsequently S1P at 1 μM final concentration is added and plates are incubated for 16 to 24 hours at 37° C., 5% CO2 after which the supernatant was collected. IL-8 levels in the supernatant are determined with the IL-8 ELISA of R&D systems.

HFL-1 cells [5] = experiment: IL8 assay in the presence of Human Serum Albumin; format: cell-based; settings: HFL1, S1P (5 μM) induced IL-8, HFL-1 cells, with 2% HSA, read-out: HSA IL8 EC50
Method: as §2
To evaluate the influence of plasma protein binding of Sip as well as compound, the S1P induced IL-8 levels were evaluated in presence of 2% Human Serum Albumin (HSA, equivalent to 40% human serum). By adding 2% HSA, which affects both the activity of the compounds as well as the S1P potency, the physiological condition are reproduced and the shift in potency expected under in vivo serum conditions can be measured.
Human Fetal Lung cells (HFL-1) are seeded in 96 well plates in growth medium (F12K+10% heat inactivated FBS+1% Pen/strep). After overnight incubation at 37° C., 5% CO2 cells are refreshed with starvation medium with HSA (F12K+1% FBS+1% Pen/strep+1.95% HSA). On day three, compounds are added (10 point serial dilution, 30 μM highest concentration, 1/3 dilution, 0.3% DMSO final) and plates are incubated for 1 h at 37° C., 5% CO2. Subsequently S1P at 5 μM final concentration is added and plates are incubated for 16 to 24 h at 37° C., 5% CO2 after which the supernatant was collected. IL-8 levels in the supernatant are determined with the IL-8 ELISA of R&D systems.

T3 sequence (Q9H228 whole entry): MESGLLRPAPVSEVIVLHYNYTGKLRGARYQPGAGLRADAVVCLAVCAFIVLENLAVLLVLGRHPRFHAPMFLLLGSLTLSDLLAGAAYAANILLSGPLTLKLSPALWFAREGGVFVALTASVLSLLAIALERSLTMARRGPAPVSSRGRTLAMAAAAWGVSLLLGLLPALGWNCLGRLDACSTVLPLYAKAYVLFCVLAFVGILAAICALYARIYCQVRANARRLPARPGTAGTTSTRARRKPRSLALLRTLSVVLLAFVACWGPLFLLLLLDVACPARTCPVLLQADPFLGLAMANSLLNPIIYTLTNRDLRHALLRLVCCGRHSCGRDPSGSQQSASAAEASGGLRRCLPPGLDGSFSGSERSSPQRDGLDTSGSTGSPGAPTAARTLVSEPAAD
T4 sequence (O95136 whole entry): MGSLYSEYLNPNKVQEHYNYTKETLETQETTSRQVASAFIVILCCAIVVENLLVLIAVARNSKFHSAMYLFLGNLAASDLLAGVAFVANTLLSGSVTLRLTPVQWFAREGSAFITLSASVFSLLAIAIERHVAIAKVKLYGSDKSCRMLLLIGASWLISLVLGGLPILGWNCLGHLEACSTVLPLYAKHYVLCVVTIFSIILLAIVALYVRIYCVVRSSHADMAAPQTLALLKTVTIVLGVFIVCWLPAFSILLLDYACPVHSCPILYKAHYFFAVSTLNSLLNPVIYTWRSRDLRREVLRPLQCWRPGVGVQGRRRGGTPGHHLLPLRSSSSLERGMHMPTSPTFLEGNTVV
T1 sequence (O95136 whole entry): as above
T2 sequence (P21453 whole entry): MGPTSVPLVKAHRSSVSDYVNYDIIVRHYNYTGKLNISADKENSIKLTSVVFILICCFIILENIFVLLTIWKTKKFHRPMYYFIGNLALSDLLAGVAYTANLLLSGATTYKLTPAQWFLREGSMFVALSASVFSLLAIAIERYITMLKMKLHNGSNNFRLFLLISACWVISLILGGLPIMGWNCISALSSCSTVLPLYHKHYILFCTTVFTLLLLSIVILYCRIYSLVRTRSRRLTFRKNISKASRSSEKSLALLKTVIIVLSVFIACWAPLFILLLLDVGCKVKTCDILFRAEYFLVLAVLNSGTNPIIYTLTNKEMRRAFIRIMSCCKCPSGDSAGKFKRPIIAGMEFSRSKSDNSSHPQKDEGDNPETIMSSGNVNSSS

SMILES | EC50 [1] [nM] | EC50 [2] [nM] | EC50 [3] [nM] | EC50 (S1PR2) [nM] | EC50 (HFL-1 cells [4]) [nM] | IC50 (HFL-1 cells [5]) [nM]
Cc1cc(CNC(=O)Nc2cc(OCC3(C(F)(F)F)CC3)nc(C(F)(F)F)c2)nnc1-c1cn(C)nc1C(F)(F)F [Compound 39, 1-[[5-methyl-6-[1-methyl-3-(trifluoromethyl)pyrazol-4-yl]pyridazin-3-yl]methyl]-3-[2-(trifluoromethyl)-6-[[1-(trifluoromethyl)cyclopropyl]methoxy]-4-pyridyl]urea] | 219 | 6610 | 6610 | 1040 | 122 | 9950
Cc1cc(CNC(=O)Nc2cc(OC3CCOCC3)nc(C(F)(F)F)c2)nnc1-c1cn(C)nc1C(F)(F)F [Compound 40, 1-[[5-methyl-6-[1-methyl-3-(trifluoromethyl)pyrazol-4-yl]pyridazin-3-yl]methyl]-3-[2-tetrahydropyran-4-yloxy-6-(trifluoromethyl)-4-pyridyl]urea] | 291 | 5150 | 6610 | 1080 | 142 | 3860
COCC(C)Oc1cc(NC(=O)NCc2cc(C)c(-c3cn(C)nc3C(F)(F)F)nn2)cc(C(F)(F)F)n1 (stereo not drawn) [Compound 41, 1-[2-(2-methoxy-1-methyl-ethoxy)-6-(trifluoromethyl)-4-pyridyl]-3-[[5-methyl-6-[1-methyl-3-(trifluoromethyl)pyrazol-4-yl]pyridazin-3-yl]methyl]urea] | 101 | ≥ 19800 | ≥ 19800 | 542 | 48.9 | 597
CCOc1nc(C(F)(F)F)cc(NC(=O)NC(C)c2cc(C)c(-c3cn(C)nc3C(F)(F)F)nn2)c1C (stereo not drawn) [Compound 45, 1-[2-ethoxy-3-methyl-6-(trifluoromethyl)-4-pyridyl]-3-[1-[5-methyl-6-[1-methyl-3-(trifluoromethyl)pyrazol-4-yl]pyridazin-3-yl]ethyl]urea] | 19.7 | ≥ 19800 | 6610 | 211 | 41.1 | 84.2
CCOc1nc(C(F)(F)F)cc(NC(=O)NCc2cc(C)c(-c3cn(C)nc3C(F)(F)F)nn2)c1CC [Compound 46, 1-[2-ethoxy-3-ethyl-6-(trifluoromethyl)-4-pyridyl]-3-[[5-methyl-6-[1-methyl-3-(trifluoromethyl)pyrazol-4-yl]pyridazin-3-yl]methyl]urea] | 17.2 | 6610 | 6610 | 97 | 25.6 | 9950
Cc1cc(CNC(=O)Nc2cc(N3CC(F)(F)C3)nc(C(F)(F)F)c2)nnc1-c1cn(C)nc1C(F)(F)F [Compound 47] | 9.3 | 6610 | ≥ 19800 | 34.5 | 4.6 | 42.4
Cc1cc(CNC(=O)Nc2cc(OCC(F)F)nc(N3CC(F)(F)C3)c2)nnc1-c1cn(C)nc1C(F)(F)F [Compound 48, 1-[2-(3,3-difluoroazetidin-1-yl)-6-(2,2-difluoroethoxy)-4-pyridyl]-3-[[5-methyl-6-[1-methyl-3-(trifluoromethyl)pyrazol-4-yl]pyridazin-3-yl]methyl]urea] | 27.1 | 5100 | ≥ 19800 | 154 | 23.9 | 104
Cc1cc(CNC(=O)Nc2cc(Cl)nc(OCC(F)F)c2C)nnc1-c1cn(C)nc1C(F)(F)F [Compound 50, 1-[6-chloro-2-(2,2-difluoroethoxy)-3-methyl-4-pyridyl]-3-[[5-methyl-6-[1-methyl-3-(trifluoromethyl)pyrazol-4-yl]pyridazin-3-yl]methyl]urea] | 8 | 5920 | 3650 | 24.1 | 1.5 | 74
CCOc1cc(NC(=O)NCc2cc(C)c(-c3cn(C4CCOC4)nc3C(F)(F)F)nn2)cc(C(F)(F)F)n1 (stereo not drawn) [Compound 52, 1-[2-ethoxy-6-(trifluoromethyl)-4-pyridyl)-3-[[5-methyl-6-[1-tetrahydrofuran-3-yl-3-(trifluoromethyl)pyrazol-4-yl]pyridazin-3-yl]methyl]urea] | 11.4 | 5890 | 6620 | 70.2 | 7.8 | 79.3
CCOc1cc(NC(=O)NCc2cc(C)c(-c3cn(CCOC)nc3C(F)(F)F)nn2)cc(C(F)(F)F)n1 [Compound 53, 1-[2-ethoxy-6-(trifluoromethyl)-4-pyridyl]-3-[[6-[1-(2-methoxyethyl)-3-(trifluoromethyl)pyrazol-4-yl]-5-methyl-pyridazin-3-yl]methyl]urea] | 10 | 4020 | 6610 | 52.4 | 6.6 | 51.2
CCOc1cc(NC(=O)NCc2cc(C)c(-c3cn(C)nc3C3CC3)nn2)cc(C(F)(F)F)n1 [Compound 54, 1-[[6-(3-cyclopropyl-1-methyl-pyrazol-4-yl)-5-methyl-pyridazin-3-yl]methyl]-3-[2-ethoxy-6-(trifluoromethyl)-4-pyridyl]urea] | 15.3 | 2480 | 4580 | 151 | 11.6 | 278
CCOc1cc(NC(=O)NCc2cc(C)c(-c3cn(CC4COCCO4)nc3C(F)(F)F)nn2)cc(C(F)(F)F)n1 (stereo not drawn) [Compound 55, 1-[[6-[1-(1,4-dioxan-2-ylmethyl)-3-(trifluoromethyl)pyrazol-4-yl]-5-methyl-pyridazin-3-yl]methyl]-3-[2-ethoxy-6-(trifluoromethyl)-4-pyridyl]urea] | 16.9 | ≥ 19800 | 6610 | 338 | 35.8 | 179
CCOc1nc(C#N)cc(NC(=O)NCc2cc(C)c(-c3cn(C)nc3C(F)(F)F)nn2)c1C [Compound 57, 1-(6-cyano-2-ethoxy-3-methyl-4-pyridyl)-3-[[5-methyl-6-[1-methyl-3-(trifluoromethyl)pyrazol-4-yl]pyridazin-3-yl]methyl]urea] | 7.6 | 6610 | 4620 | 24.4 | 0.9 | 17.3
Cc1cc(CNC(=O)Nc2cc(C#N)nc(OCC(F)F)c2C)nnc1-c1cn(C)nc1C(F)(F)F [Compound 59, 1-(6-cyano-2-(2,2-difluoroethoxy)-3-methyl-4-pyridyl]-3-[[5-methyl-6-[1-methyl-3-(trifluoromethyl)pyrazol-4-yl]pyridazin-3-yl]methyl]urea] | 7.2 | 6610 | 5500 | 38.5 | 0.9 | 116
Cn1cc(-c2nnc(CNC(=O)Nc3cc(Cl)nc(OCC(F)F)c3)cc2N2CC(F)(F)C2)c(C(F)(F)F)n1 [Compound 60, 1-[2-chloro-6-(2,2-difluoroethoxy)-4-pyridyl]-3-[[5-(3,3-difluoroazetidin-1-yl)-6-[1-methyl-3-(trifluoromethyl)pyrazol-4-yl]pyridazin-3-yl]methyl]urea] | 3280 | 2800 | 6610 | 1520 | 166 | 4340
